Experimental data as given in ChEMBL document CHEMBL3137667, “[Drug-induced liver injury; fourteenth updated edition of the bibliographic database of liver injuries and related drugs]” (Gastroenterol Clin Biol, 2004).

Tests used:
[1] = human
[2] = human; remark: listed apart in the source
[3] = Times to onset, minimal and maximal, observed in the indexed observations. [column 'DELAI' in source]; details: human
[4] = Presence of at least one case with successful reintroduction. [column 'REINT' in source]; details: human
[5] = human; remark: listed apart in the source
[6] = human, serum
[7] = human; remark: listed apart in the source
[8] = Comments (NB not yet translated). [column 'COMMENTAIRES' in source]; details: human
[9] = Highest frequency of moderate liver toxicity observed during clinical trials, expressed as a percentage. [column '% BIOL' in source]; details: human
[10] = human; remark: listed apart in the source
[11] = human; remark: listed apart in the source
[12] = Highest frequency of acute liver toxicity observed during clinical trials, expressed as a percentage. [column '% AIGUE' in source]; details: human
[13] = human, serum, 4383 h
[14] = human, serum; remark: listed apart in the source
[15] = human; remark: listed apart in the source
[16] = Proposed mechanism(s) of liver damage. [column 'MEC' in source]; details: human
[17] = human; remark: listed apart in the source
[18] = human; remark: listed apart in the source
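For Hepatotoxicity (association with vascular disease) in this document: count of indexed literature references reporting vascular liver injury in humans, e.g. peliosis hepatitis, hepatic veno-occlusive disease or Budd-Chiari syndrome.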
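For Hepatotoxicity (benign tumour) in this document: value is a count of indexed literature references citing a benign tumour confirmed by histopathology.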
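For Hepatotoxicity (choleostasis) in this document: human cholestatic liver injury, shown by histopathology or by peak ALT or AST elevation over alkaline phosphatase ratio below 2, value counts indexed literature reports.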
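For Hepatotoxicity (chronic liver disease) in this document: chronic liver injury confirmed by histopathology or persistently raised serum aminotransferase activity beyond 6 months, value given as the count of indexed literature references.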
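For Hepatotoxicity (cirrhosis) in this document: value is a count of indexed literature references reporting cirrhosis confirmed by histopathology.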
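For Hepatotoxicity (cytolytic) in this document: human cytolytic liver injury, shown by histopathology or by a ratio above 5 of peak ALT or AST elevation to alkaline phosphatase elevation, value counts indexed references.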
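For Hepatotoxicity (granulomatous hepatitis) in this document: value is a count of indexed literature references reporting granulomatous liver disease confirmed by histopathology.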
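For Hepatotoxicity (malignant tumour) in this document: malignant tumour confirmed by histopathology, value gives the count of indexed literature references reporting it.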
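For Hepatotoxicity (severe hepatitis) in this document: human clinical data: severe hepatitis, meaning potentially life-threatening liver failure or clinically observed cases, the value counts how many indexed literature references report it.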
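For Hepatotoxicity (steatosis) in this document: steatosis confirmed by histopathology, value is the count of indexed references.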

Row | SMILES | Hepatotoxicity (cirrhosis) [1] | Hepatotoxicity (time to onset) [3] | Hepatotoxicity (successful reintroduction) [4] | Hepatotoxicity (acute) [6] | Hepatotoxicity (malignant tumour) [7] | Hepatotoxicity (comment) [8] | Hepatotoxicity (association with vascular disease) [11] | Hepatotoxicity (chronic liver disease) [13] | Hepatotoxicity (moderate) [14] | Hepatotoxicity (benign tumour) [15] | Hepatotoxicity (steatosis) [17] | Hepatotoxicity (cytolytic) [2] | Hepatotoxicity (severe hepatitis) [5] | Hepatotoxicity (moderate) [9] | Hepatotoxicity (granulomatous hepatitis) [10] | Hepatotoxicity (acute) [12] | Hepatotoxicity (mechanism) [16] | Hepatotoxicity (choleostasis) [18] | further results
1 | Nc1ccc(S(=O)(=O)c2ccc(N)cc2)cc1 [DAPSONE] | 0 | 1 week - 1.5 years | yes | 33 | 0 | DUCTOPENIE | 0 | 0 | 10 | 0 | 0 | – | – | – | – | – | – | – | Hepatotoxicity (cytolytic) ([2]; Liver): 15; Hepatotoxicity (severe hepatitis) ([5]; Liver): 6; Hepatotoxicity (moderate) ([9]; Liver): 20%; Hepatotoxicity (granulomatous hepatitis) ([10]; Liver): 3; Hepatotoxicity (acute) ([12]; Liver): 5%; Hepatotoxicity (mechanism) ([16]; Liver): Allergic, Dose-dependant; Hepatotoxicity (choleostasis) ([18]; Liver): 13
2 | CN1C(=O)CN=C(c2ccccc2)c2cc(Cl)ccc21 [DIAZEPAM] | 0 | 2 days - 9 years | yes | 12 | 0 | AC_ANTI-N/-M #CBP | 0 | 0 | 1 | 0 | 0 | 3 | 1 | 7.1% | 1 | 0% | Allergic | 9 | –
3 | O=c1[nH]cnc2c1ncn2[C@H]1CC[C@@H](CO)O1 [DIDANOSINE] | 1 | 5 days - 8 years | yes | 27 | 0 | REACTIVATION_HVB/HVC I/PARACETAMOL | 0 | 1 | 18 | 0 | 20 | 21 | 13 | 38.1% | 0 | 12.5% | Dose-dependant, Mitochondrial toxicity | 6 | –
4 | CCCCOCC(CN1C(=O)N(CC(COCCCC)OC(N)=O)C(=O)C(CC)(c2ccccc2)C1=O)OC(N)=O (configuration not stated) [DIFEBARBAMATE] | 0 | 8 days - 15 months | yes | 9 | 0 | AC_ANTI-N/-ML I/PAROXETINE | 0 | 0 | 2 | 0 | 1 | 9 | 5 | 0% | 1 | 0% | Allergic | 1 | –
5 | NNc1nnc(NN)c2ccccc12 [DIHYDRALAZINE] | 0 | 2 days - 3 years | yes | 21 | 0 | AC_ANTI-MF/-M/-N/-CYP1A2 | 0 | 4 | 0 | 0 | 1 | 17 | 1 | 0% | 0 | 0.1% | Allergic | 5 | –
6 | COc1ccc([C@@H]2Sc3ccccc3N(CCN(C)C)C(=O)[C@@H]2OC(C)=O)cc1 [DILTIAZEM] | 0 | 1 day - 5 months | yes | 11 | 0 | RC/AMLODIPINE | 0 | 0 | 20 | 0 | 1 | 6 | 1 | 6% | 2 | 2.4% | Allergic | 5 | –
7 | CN(C)CCC=C1c2ccccc2COc2ccccc21 [DOXEPIN] | 0 | 1 week | yes | 2 | 0 | AC_ANTI-ML | 0 | 0 | 3 | 0 | 0 | 2 | 0 | 33.3% | 0 | 0% | Allergic | 1 | –
8 | CC[C@H]1OC(=O)[C@H](C)[C@@H](O[C@H]2C[C@@](C)(OC)[C@@H](O)[C@H](C)O2)[C@H](C)[C@@H](O[C@@H]2O[C@H](C)C[C@H](N(C)C)[C@H]2O)[C@](C)(O)C[C@@H](C)C(=O)[C@H](C)[C@@H](O)[C@]1(C)O [ERYTHROMYCIN] | 0 | 12 hours - 5 weeks | yes | 72 | 0 | CHOLANGITE #CBP RC/AMOXICILLINE/TROLEANDOMYCINE | 0 | 0 | 19 | 0 | 0 | 20 | 1 | 38% | 0 | 3% | Allergic, Toxic | 55 | –
9 | CCCCOCC(CN1C(=O)NC(=O)C(CC)(c2ccccc2)C1=O)OC(N)=O (configuration not stated) [FEBARBAMATE] | 0 | 8 days - 15 months | yes | 9 | 0 | AC_ANTI-N/-LM I/PAROXETINE | 0 | 0 | 2 | 0 | 1 | 9 | 5 | 0% | 1 | 0% | Allergic | 1 | –
